Laboratory results taken from publication PMC11474200, “Probing the nucleobase selectivity of RNA polymerases with dual-coding substrates” (The Journal of Biological Chemistry, 2024).
Like-named read-outs stand apart in the source and are kept apart here.

Tests used:
Assay type in all cases: biochemical
Mt-DdRP = biological target: T1, Mt-DdRP (Homo sapiens, UniProt O00411); assay: single-nucleotide addition, denaturing PAGE; settings: elongation complex, 100 μM analog, 1 min, 10 mM MgCl2, pH 7.5, 25 °C
T1 construct: gene POLRMT; expressed in E. coli from pRP009, Ni-, heparin and S-sepharose purified; in assembled elongation complex
T1 sequence (O00411 42-1230): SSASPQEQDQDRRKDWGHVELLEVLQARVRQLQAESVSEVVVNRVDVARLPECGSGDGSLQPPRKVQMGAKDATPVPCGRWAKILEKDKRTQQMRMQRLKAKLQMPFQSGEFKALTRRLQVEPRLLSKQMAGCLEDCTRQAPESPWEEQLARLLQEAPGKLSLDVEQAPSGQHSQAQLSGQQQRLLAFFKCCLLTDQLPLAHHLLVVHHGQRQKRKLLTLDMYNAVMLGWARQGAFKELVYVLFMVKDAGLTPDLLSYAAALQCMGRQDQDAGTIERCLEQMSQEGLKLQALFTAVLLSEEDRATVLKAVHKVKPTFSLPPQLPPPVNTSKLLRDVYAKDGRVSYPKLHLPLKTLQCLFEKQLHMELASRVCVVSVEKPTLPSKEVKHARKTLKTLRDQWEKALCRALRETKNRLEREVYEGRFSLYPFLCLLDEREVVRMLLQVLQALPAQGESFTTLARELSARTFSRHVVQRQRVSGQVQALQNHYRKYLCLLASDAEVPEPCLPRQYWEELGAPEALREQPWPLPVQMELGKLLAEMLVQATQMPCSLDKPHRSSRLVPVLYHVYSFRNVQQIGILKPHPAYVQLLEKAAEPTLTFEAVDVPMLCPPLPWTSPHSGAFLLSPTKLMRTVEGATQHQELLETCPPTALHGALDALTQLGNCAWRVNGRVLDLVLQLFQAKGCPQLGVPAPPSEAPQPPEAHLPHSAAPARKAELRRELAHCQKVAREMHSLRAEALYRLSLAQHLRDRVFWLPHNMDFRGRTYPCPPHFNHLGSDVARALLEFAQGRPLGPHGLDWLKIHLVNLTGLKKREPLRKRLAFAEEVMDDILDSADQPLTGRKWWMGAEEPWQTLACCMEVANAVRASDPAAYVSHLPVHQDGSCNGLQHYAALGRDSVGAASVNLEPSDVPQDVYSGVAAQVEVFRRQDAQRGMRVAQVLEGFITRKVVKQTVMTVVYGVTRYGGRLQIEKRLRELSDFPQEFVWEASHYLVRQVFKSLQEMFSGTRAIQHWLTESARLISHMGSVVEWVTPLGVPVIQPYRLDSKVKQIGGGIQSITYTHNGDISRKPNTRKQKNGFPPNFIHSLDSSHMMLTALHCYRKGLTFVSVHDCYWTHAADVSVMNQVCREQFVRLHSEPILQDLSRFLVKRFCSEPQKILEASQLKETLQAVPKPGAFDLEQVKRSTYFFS

Ec-DdRP [1] = biological target: T2, Ec-DdRP (Escherichia coli, UniProt P0A8T7+P0A8V2)
T2 construct: gene rpoB; multisubunit RNAP without added sigma, in assembled elongation complex; expressed in E. coli T7 Express from pVS10, Ni-, heparin and Q-sepharose purified; with DNA-directed RNA polymerase subunit alpha; DNA-directed RNA polymerase subunit omega
T2 sequence (P0A7Z4 whole entry): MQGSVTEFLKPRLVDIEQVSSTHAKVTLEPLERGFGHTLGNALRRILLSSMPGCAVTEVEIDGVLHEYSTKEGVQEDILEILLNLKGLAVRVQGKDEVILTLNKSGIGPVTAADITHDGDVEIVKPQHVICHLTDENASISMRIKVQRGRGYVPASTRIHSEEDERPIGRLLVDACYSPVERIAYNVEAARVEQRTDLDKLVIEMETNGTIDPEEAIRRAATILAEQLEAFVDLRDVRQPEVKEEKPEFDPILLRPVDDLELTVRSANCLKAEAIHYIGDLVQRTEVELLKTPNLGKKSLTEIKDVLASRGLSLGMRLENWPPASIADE
T2 sequence (P0A8T7 whole entry): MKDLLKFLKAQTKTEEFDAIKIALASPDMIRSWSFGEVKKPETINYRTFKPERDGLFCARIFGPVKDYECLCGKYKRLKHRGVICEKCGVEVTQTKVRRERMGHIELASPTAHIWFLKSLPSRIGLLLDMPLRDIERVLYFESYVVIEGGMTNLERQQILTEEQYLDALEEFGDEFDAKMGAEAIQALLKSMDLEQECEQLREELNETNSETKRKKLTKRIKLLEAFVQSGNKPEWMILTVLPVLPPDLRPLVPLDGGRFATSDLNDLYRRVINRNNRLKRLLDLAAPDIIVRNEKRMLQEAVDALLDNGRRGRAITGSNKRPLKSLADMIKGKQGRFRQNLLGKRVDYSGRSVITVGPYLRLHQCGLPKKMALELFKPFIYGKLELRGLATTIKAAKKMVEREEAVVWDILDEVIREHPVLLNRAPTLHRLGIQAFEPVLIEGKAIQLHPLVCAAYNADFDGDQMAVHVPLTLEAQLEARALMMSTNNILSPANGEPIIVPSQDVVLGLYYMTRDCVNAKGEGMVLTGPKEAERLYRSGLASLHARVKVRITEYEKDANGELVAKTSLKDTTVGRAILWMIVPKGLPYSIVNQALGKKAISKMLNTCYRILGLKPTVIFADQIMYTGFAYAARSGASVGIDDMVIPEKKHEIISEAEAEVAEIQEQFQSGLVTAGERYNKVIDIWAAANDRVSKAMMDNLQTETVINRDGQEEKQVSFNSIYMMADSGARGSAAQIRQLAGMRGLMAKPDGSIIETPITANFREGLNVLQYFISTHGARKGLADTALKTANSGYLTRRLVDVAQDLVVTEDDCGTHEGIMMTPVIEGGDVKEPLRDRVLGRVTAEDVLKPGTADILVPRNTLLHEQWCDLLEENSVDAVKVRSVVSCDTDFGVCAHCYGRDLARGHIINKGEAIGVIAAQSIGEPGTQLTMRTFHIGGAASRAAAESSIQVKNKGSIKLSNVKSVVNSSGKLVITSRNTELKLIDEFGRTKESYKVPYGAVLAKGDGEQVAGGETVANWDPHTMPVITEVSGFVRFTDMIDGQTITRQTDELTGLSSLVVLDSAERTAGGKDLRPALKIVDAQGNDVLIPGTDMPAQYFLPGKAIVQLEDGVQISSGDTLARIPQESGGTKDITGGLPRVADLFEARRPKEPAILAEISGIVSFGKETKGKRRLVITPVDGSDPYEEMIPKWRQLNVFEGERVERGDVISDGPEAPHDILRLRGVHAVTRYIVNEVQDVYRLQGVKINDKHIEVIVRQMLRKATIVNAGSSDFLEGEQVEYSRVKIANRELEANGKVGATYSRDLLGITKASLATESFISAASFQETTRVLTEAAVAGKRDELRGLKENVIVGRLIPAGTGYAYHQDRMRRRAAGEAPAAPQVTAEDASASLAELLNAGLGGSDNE
T2 sequence (P0A8V2 whole entry): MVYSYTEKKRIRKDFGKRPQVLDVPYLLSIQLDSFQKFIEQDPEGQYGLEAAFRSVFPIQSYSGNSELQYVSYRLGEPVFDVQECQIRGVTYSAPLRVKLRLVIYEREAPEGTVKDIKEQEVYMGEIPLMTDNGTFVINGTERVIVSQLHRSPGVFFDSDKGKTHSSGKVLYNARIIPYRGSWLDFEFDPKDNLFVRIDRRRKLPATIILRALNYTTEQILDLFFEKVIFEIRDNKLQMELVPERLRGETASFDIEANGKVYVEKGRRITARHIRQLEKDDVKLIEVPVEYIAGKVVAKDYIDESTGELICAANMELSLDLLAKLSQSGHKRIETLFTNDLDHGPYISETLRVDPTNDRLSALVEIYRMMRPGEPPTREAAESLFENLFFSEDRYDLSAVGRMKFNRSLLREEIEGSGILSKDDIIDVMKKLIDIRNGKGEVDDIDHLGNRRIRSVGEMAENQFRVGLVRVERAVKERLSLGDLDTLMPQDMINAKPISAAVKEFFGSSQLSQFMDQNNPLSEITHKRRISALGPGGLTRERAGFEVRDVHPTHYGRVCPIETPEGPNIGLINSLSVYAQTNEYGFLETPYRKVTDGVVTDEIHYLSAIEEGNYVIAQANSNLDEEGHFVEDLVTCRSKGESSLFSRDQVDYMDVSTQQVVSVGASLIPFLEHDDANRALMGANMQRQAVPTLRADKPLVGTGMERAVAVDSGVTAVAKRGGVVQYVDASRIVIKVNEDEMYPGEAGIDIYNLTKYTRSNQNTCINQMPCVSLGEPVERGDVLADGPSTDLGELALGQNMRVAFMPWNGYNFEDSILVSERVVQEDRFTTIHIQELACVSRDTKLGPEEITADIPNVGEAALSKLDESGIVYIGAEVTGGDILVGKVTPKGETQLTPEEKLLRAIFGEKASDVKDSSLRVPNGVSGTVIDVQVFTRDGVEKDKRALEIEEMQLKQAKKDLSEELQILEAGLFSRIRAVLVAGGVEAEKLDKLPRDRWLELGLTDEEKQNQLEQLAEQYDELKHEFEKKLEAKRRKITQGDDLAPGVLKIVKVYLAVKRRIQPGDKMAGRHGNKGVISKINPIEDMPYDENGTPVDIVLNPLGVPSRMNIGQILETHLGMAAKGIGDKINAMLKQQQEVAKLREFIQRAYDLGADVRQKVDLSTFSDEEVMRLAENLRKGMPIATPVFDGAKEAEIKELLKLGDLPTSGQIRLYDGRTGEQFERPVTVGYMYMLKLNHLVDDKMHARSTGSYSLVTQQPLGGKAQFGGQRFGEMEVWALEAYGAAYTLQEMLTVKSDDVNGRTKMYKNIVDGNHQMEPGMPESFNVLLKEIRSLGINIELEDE
T2 sequence (P0A800 2-91, further chain): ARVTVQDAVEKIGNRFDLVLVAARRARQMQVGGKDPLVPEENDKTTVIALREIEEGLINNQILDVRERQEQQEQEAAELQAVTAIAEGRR

Ec-DdRP [2] = biological target: T2, Ec-DdRP; remark: listed apart in the source
[3] = elongation complex, FOR as A-substitute (incorporation rate 27 s^-1), 10 mM MgCl2, pH 7.5, 25 °C

In the case of `NC(=O)c1[nH]nc([C@@H]2O[C@H](COP(=O)(O)OP(=O)(O)OP(=O)(O)O)[C@@H](O)[C@H]2O)c1O` (mixture of isomers) [PYR 5′-triphosphate], the “single-nucleotide addition, denaturing PAGE” value (Mt-DdRP; incorporated in place of uridine) is reported as “all RNAPs in our set incorporated PYR in place of uridine”.
Molecule `Nc1ncnc2c1ncn2[C@@H]1O[C@H](COP(=O)(O)OP(=O)(O)OP(=O)(O)O)[C@@H](O)[C@H]1O` [ATP] has a koff (Ec-DdRP [1]) of 5.6 to 19 s⁻¹ and a kon (Ec-DdRP [2]) of 1.2e+06 to 1.5e+06 M⁻¹ s⁻¹.
`Nc1ncnc2c([C@@H]3O[C@H](COP(=O)(O)OP(=O)(O)OP(=O)(O)O)[C@@H](O)[C@H]3O)n[nH]c12` [FOR triphosphate] was tested, and the koff (Ec-DdRP [1]; [3]) was 74 to 220 s⁻¹, the “single-nucleotide addition, denaturing PAGE” value (Mt-DdRP; incorporated in place of adenine) was “FOR was incorporated in place of adenine by all RNAPs in our set” and the kon (Ec-DdRP [2]; [3]) was 3.1e+06 to 6.6e+06 M⁻¹ s⁻¹.
